The record followed here is publication PMC9007462 (Journal of Medicinal Chemistry, 2022).

One experiment addresses T1, Human ALDH1A3 (Homo sapiens, UniProt P47895).
T1 construct: made in house
T1 sequence (P47895 1-512): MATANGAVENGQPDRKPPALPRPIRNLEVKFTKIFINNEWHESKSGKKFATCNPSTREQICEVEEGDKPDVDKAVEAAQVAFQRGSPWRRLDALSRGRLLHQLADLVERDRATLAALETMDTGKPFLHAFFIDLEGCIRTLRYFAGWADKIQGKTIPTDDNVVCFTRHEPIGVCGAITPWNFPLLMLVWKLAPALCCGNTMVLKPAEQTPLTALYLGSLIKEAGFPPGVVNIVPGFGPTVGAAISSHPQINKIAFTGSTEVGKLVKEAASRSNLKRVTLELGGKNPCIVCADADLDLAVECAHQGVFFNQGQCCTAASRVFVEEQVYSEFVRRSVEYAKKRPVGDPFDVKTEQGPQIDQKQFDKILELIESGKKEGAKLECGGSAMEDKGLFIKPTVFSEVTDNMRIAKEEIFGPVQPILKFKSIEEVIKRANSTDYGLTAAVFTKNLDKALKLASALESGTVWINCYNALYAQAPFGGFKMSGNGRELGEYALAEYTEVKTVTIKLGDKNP
Briefly: ALDH1A3 inhibition, IC50, Ki and type of inhibition. It is filed as biochemical. Conditions: for IC50: 6 μM hexanal as substrate.

The test system of a further experiment is LNCaP. The experiment can be described thus: MTT chemosensitivity assay, LNCaP. It is filed as cell-based, human. To be noted: Homo sapiens, LNCaP, 96 h exposure, ± SD, at least three independent experiments.
The next experiment concerns DU145. Briefly: MTT chemosensitivity assay, DU145. Conditions: Homo sapiens, DU-145, 96 h exposure, ± SD, at least three independent experiments. It is filed as cell-based, human.
The next experiment has as its system PC3. Briefly: MTT chemosensitivity assay, PC3. It is filed as cell-based, human. To be noted: Homo sapiens, PC-3, 96 h exposure, ± SD, at least three independent experiments.
The subject of experiment [1] is patient-derived primary prostate tumor epithelial cells. Briefly: Alamar Blue cell viability of primary prostate epithelial cultures. Conditions: 72 h; for cell viability of primary prostate epithelial cultures, combination with docetaxel: 50 and 200 μM + 1 nM docetaxel; for cell viability of primary prostate epithelial cultures, single agent: 50 and 200 μM, four cancer samples and one BPH. It is filed as cell-based, human. The protocol:
Primary cells cultured at early passage from human prostate tissue biopsies included one BPH sample H415/15–BPH/PSA 0.61 and four PCa samples H568/15 RM–Gl7(3 + 4)/PSA 8.5, H431/14 LM–Gl7(3 + 4)/PSA 14, H488/14 RM–Gl7(3 + 4)/PSA 12.6, and H517/15 RM–Gl7(3 + 4)/PSA 4.4. Primary cells were obtained with ethical consent (REC ref 07/H1304/121) at radical prostatectomy (cancer) and transurethral resection (BPH) and were seeded as previously described[37] in 96-well plates 5000 cells/well in 100 μL of SCM and incubated at 37 °C, 5% CO2 for 24 h. […] Cells were treated with 100 μL of ALDH inhibitors at concentrations of 50 and 200 μM as single treatment. Combination treatments included 100 μL of 50 μM ALDH inhibitor + 1 nM docetaxel and 100 μL of 200 μM ALDH inhibitor + 1 nM docetaxel. Cells were also treated with 100 μL of 1 nM docetaxel only. 1 nM docetaxel was chosen since it was the IC50 when other primary samples were analyzed in our laboratory. Control wells included blank (media only) and untreated cells (DMSO only). Each experiment was performed in triplicate, and cell seeding density was the same in all wells; therefore, changes in treated cells were compared to untreated DMSO control cells. Plates were returned to the incubator for a 72 h incubation before further processing. Alamar Blue solution was added at 10% of total sample volume, and plates were incubated at 37 °C for 1–4 h before absorbance was analyzed in a plate reader.[65] Alamar Blue has an excitation wavelength of 530–560 nm and an emission wavelength of 590 nm. Total % cell viability/cell survival was calculated by dividing the absorbance of the treated sample by the absorbance of control and multiplying it by 100.

As for `CCCN(CCC)c1ccc(C=O)cc1Br` [Compound 14, 3-Bromo-4-(dipropylamino)benzaldehyde], the IC50 was 0.63 ± 0.02 µM at Human ALDH1A3 (mean ± SE), 25 ± 1 µM in the experiment on LNCaP, 61 ± 5 µM with DU145 and 47 ± 6 µM in the experiment with PC3. On Human ALDH1A3 (hexanal as substrate), the “type of inhibition ALDH1A3” value is on record as “competitive”. Further, the Ki at Human ALDH1A3 (hexanal as substrate, fit to competitive inhibition equation, mean ± SE) turned out to be 0.46 ± 0.15 µM. Also, the “fold difference in capacity to inhibit ALDH1A3, 14 vs 13” value on Human ALDH1A3 (ratio of IC50 values) is on record as “approximately 17 fold”. In experiment [1], the “cell viability of primary prostate epithelial cultures, combination with docetaxel” value is given as “more potent than DEAB”. Moreover, the “cell viability of primary prostate epithelial cultures, single agent” value in experiment [1] is given as “more potent than DEAB”.

For the compound `CCCN(CCC)c1ccc(C=O)cc1[N+](=O)[O-]` [Compound 18, 4-(Dipropylamino)-3-Nitrobenzaldehyde], the IC50 came to 106 ± 16 µM on Human ALDH1A3 (mean ± SE), 31 ± 6 µM with LNCaP, 100 ± 13 µM in the experiment on DU145 and 98 ± 12 µM in the experiment with PC3. Further, in experiment [1], the “cell viability of primary prostate epithelial cultures, combination with docetaxel” value was “more potent than DEAB”. The “cell viability of primary prostate epithelial cultures, single agent” value in experiment [1] is “more potent than DEAB”.
